This note sets out measurements from patent US6387907B1, “Use of serotonin agonists to alleviate disordered breathing episodes in a mammal” (The Trustees of the University of Pennsylvania, priority 1997, dated 2002).

The test system of test [1] is English bulldogs. Put plainly: Upper airway dilator muscle (GH, SH) EMG activity during wakefulness after i.v. serotonin antagonist. Conditions: mean±SE; for GH peak amplitude, mean: four dogs, baseline 11.86±2.17; for SH amplitude: baseline 14.41±3.93. It counts as in vivo, English bulldog. An excerpt:
Following the baseline sleep study to document sleep-disordered breathing, each dog underwent a surgical procedure for the implantation of recording electrodes. For this procedure, dogs were premedicated with 5 to 10 micrograms per kilogram body weight atropine sulfate intramuscularly. In the cases of two bulldogs experiencing severe sleep-disordered breathing, intubation and general anesthesia were thought to pose a significant risk for postoperative respiratory failure. These two dogs were therefore sedated only using 20 to 40 micrograms per kilogram body weight oxymorphone administered intramuscularly. The six remaining dogs were anesthetized initially with sodium thiopental (15 to 30 milligrams per kilogram body weight) administered intravenously. The dogs were intubated and maintained under general anesthesia using 0.5 to 2.5% (v/v) inhalational halothane throughout the procedure.
Recording electrodes were implanted for the study of diaphragm and upper airway dilator muscle activity. Electrodes were fashioned from 0.7 millimeter multi-stranded Teflon-coated stainless steel wire. The insulation was stripped from 5 to 8 millimeters at the proximal tip. The proximal tip of each electrode was implanted transcutaneously into the relevant musculature using methods described by Basmajian et al. (1962, J. Appl. Physiol. 17:839).
Five diaphragm electromyographic (DIA EMG) electrodes were implanted in the costal musculature of the right hemidiaphragm 7 to 9 centimeters lateral to the xyphoid process. Three other electrodes were embedded into the right sternohyoid (SH) muscle and, three more were embedded into the right geniohyoid (GH) muscle. Both SH and GH muscles are readily palpable in the English bulldog.
Two ground electrodes were embedded transcutaneously contacting both the occipital skull and dorsal neck musculature. Distal tips of all electrodes were soldered onto a 25-pin Winchester-type connector. Electrodes and the connector were secured to each dog with elastic adhesive dressings over the torso and neck.
All studies were conducted using an unrestrained dog, either housed within a well-ventilated, electronically shielded, clear Plexiglass™ recording chamber or seated atop a table in the recording room. In either case, an investigator remained with the dog throughout the study to observe the dog's head and neck movements and to document the behavioral state of the dog. EMG signals were band-pass filtered at 50 to 2,000 Hertz. DIA EMG signals were passed through an analog EKG blanker (CWE EKG blanker; CWE, Ardmore, Pa.) and then through a third-order Paynter filter (CWE MA) having a 100-millisecond time constant to obtain a moving average of the DIA EMG. Signals of the SH and GH EMG were also passed through Paynter filters with the same time constants (100 ms) to obtain moving averages of these signals. Oxyhemoglobin saturation was measured continuously with a Biox IIA oximeter attached to the dog's pinna. Signals for the GH EMG, GH moving average (MA), SH EMG, SH MA, DIA EMG, DIA MA, and oxyhemoglobin saturations were recorded polygraphically (10 millimeters per second) using a chart recorder with high frequency response, i.e., as much as 10 kHz (Gould ES1000; Gould Instruments, Cleveland, Ohio). Signals were also recorded on analog tape using an eight-channel FM tape recorder (A. R. Vetter, Roseburg, Pa.).
The effects of serotonin antagonists on upper airway dilator muscle activity and breathing during wakefulness were assessed. Serotonin antagonists which were administered were methysergide maleate and ritanserin.
Ritanserin is a relatively selective serotonin antagonist at types 1C and 2 serotonin receptors (Devaud et al., 1992, J. Neurochem. 59:1459-1466). Ritanserin was selected for study on the basis that the IC and 2 subtypes of serotonin receptors appear to be involves in serotonin facilitation of hypoglossal motoneurons in vivo (Kugin et al., supra). […]

In test [2] the test system is English bulldogs. Put plainly: Cine CT imaging of the upper airway before and after ritanserin. The format is in vivo, English bulldog. Conditions: 0.5 mg/kg i.v. Here is the method: The effect of administering a serotonin antagonist on upper airway dimensions during a respiratory cycle was determined by performing cinematic computed tomography (cine CT) on dogs before and after administration of the antagonists. Cine CT allows both high spatial and temporal resolution (Shepard et al., 1990, In: Proceedings of the First International Symposium on Sleep and Respiration, New York, 273-282; Schwab et al., 1993, Am. Rev. Respir. Dis. 148:1385-1400), and has been used to define dynamic changes in the upper airways of humans in relation to the phases of the respiratory cycle (Schwab et al., 1993, Am. Rev. Respir. Dis. 148:1385-1400; Galvin et al., 1989, Radiology 171:775-778; Schwab et al., 1993, J. Appl. Physiol. 74:1504-1514). An Imatron C-100 ultrafast scanner (Imatron Inc., South San Francisco, Calif.) was used for these studies.
Dogs were studied during wakefulness. All dogs were trained prior to the study to lie quietly on a table similar to the CT scanner table for periods as long as one hour. However, to maintain constant head and body position throughout the study, each dog wore a nylon vest secured to the table at the shoulder and hips. Lateral radiographs of the neck were performed initially so that the head and neck were positioned with a 110 to 130 degree angle between the hard palate and the upper trachea.
Once the angle was confirmed, the head was gently secured in place to the scanner table with elastic dressing tape. With the dog comfortably secured in place, a scout filming of the airways was performed with 40 consecutive 3-millimeter-thick coronal slices imaged from the region of the nasopharynx through the larynx. For each dog, these images were used to select four standard areas of study for all dogs. […] For each dog, the areas which were imaged included the posterior nasopharynx (at the level of pterygoid fossa in the dog), the retropalatal high area (at the midhyoid arch level), the retropalatal low area (at the level of the anterior hyoid bone), and the larynx.
Prior to imaging, each dog was connected as described above for monitoring geniohyoid, sternohyoid, and diaphragm muscle activity, respiratory inductive plethysmography, and oxyhemoglobin saturation. During quiet breathing, 20 consecutive images at 0.4-second intervals were obtained simultaneously at each of the four described levels. This program allowed for the description of the dynamic changes in airway dimensions over four to seven breaths at all four anatomic levels simultaneously. The image acquisition time for each radiograph was 50 milliseconds, and images were 3 millimeters thick. Imaging studies were rejected and repeated if the respiratory activity was interrupted at any time during imaging by swallowing, sighing (defined for this study as a diaphragm burst 200% greater in amplitude than the previous 10 bursts), licking, or panting, the latter being defined as a respiratory frequency of more than 60 diaphragmatic respiratory bursts per minute. Cine CT scanner impulses marking the timing for all images were transmitted to the polygraph with continuing signals of all objective measures, i.e., GH, SH, and DIA EMG activity, oxyhemoglobin saturation, and chest wall plethysmography. […]
This study quantified the effects of the serotonin antagonist, ritanserin, on the cross-sectional area of the upper airway and its dynamic changes during the respiratory cycle. […]

As to `Cc1nc2sccn2c(=O)c1CCN1CCC(=C(c2ccc(F)cc2)c2ccc(F)cc2)CC1` [ritanserin], the results for the “GH peak amplitude, mean” value in test [1] (0.25 mg/kg i.v.), in test [1] (0.50 mg/kg i.v. cumulative) and in test [1] (0.75 mg/kg i.v. cumulative) were 6.42±1.12 arbitrary units, 7.23±2.01 arbitrary units and 7.44±2.48 arbitrary units, respectively. For the same molecule, the SH amplitude in test [1] (0.25 mg/kg i.v.) is recorded as 10.90±2.99 arbitrary units; in test [1] (0.75 mg/kg i.v. cumulative) it was 7.43±0.55 arbitrary units. The “percent suppression of GH activity” value in test [1] (0.25 mg/kg i.v., quiet waking) is 40.0±6.5%. Moreover, the SH peak amplitude in test [1] (0.50 mg/kg i.v., baseline ritanserin 14.41±3.93, methysergide 5.75±0.18) came to 9.08±1.32 arbitrary units. For the same molecule, the “GH peak amplitude suppressed by” value in test [2] (mean values for the two dogs) was 51.1±1.8%. Besides, in test [2] (two dogs), the “chest wall respiratory movement amplitude reduced by” value is 59.9%. Further, in test [2] (two dogs), the “upper airway parameters during expiration” value is given as “no significant changes”. Besides, the “mean SaO2 after administration” value in test [2] (two dogs, before 92.8±1.8) worked out at 86.2±4.7%. Also, the “airway CSA during both stages of inspiration” value in test [2] (two dogs, individual ANOVAs p<0.01) is listed as “significant reduction”.
